Measured values from PubChem BioAssay AID743479 (Broad Institute, 2014).
Inconclusive results are not listed.

Test system: A673 NR0B1-luciferase reporter, viability-normalised luminescence
Experiment: reduction of NR0B1-luciferase signal in A673 cells – cell-based, luciferase luminescence, dry powder, dose response (AID 743479)

SMILES	AC35 [µM]
CCc1c2c(nc3ccc(O)cc13)-c1cc3c(c(=O)n1C2)COC(=O)C3(O)CC (stereo not drawn)	0.00781
COc1ccc(S(=O)(=O)N2CC[C@@H]3[C@@H](CO)Nc4ccc(-c5ccc(C#N)cc5)cc4[C@@H]32)cc1	3.37
COc1ccccc1C1C(C#N)=C(N)Oc2cc(N)ccc21 (stereo not drawn)	53.1
COc1ccc(S(=O)(=O)N2CC[C@@H]3[C@@H](CO)N(C)c4ccc(-c5ccc(F)cc5)cc4[C@@H]32)cc1	2.85
COc1cccc(S(=O)(=O)N2CC[C@@H]3[C@@H](CO)Nc4ccc(-c5ccc(C#N)cc5)cc4[C@@H]32)c1	28.5
N#CC1=C(N)Oc2cc(OC(=O)c3ccccc3)ccc2C1c1cccc(Br)c1 (stereo not drawn)	3.55
COc1ccc(-c2ccc3c(c2)[C@H]2[C@H](CCN2S(=O)(=O)c2ccc(OC)cc2)[C@@H](CO)N3)cc1	3.57
Nc1ccn([C@@H]2O[C@H](CO)[C@H](O)C2O)c(=O)n1 (stereo partly drawn)	1.26
COc1ccc(C2=Nn3c(nnc3-c3ccccc3F)SC2)cc1OC	11.5
COc1ccc(S(=O)(=O)N2CC[C@@H]3[C@H](CO)Nc4ccc(-c5ccc(C#N)cc5)cc4[C@@H]32)cc1	8.44
COc1ccccc1-c1nnc2n1N=C(c1ccc(O)c(O)c1)CS2	3.93
COc1ccccc1-c1nnc2n1N=C(c1ccc3c(c1)OCO3)CS2	0.0242
CN1c2ccc(-c3ccc(C#N)cc3)cc2[C@H]2[C@H](CCN2S(=O)(=O)c2ccc(F)cc2)[C@H]1CO	33.6
Cc1ccccc1C1C(C#N)=C(N)Oc2cc(N)ccc21 (stereo not drawn)	40.9
CCC(C)C(=O)OC1CC(C)C=C2C=CC(C)C(CCC(O)CC(O)CC(=O)O)C21 (stereo not drawn)	55.5
N#CC1=C(N)Oc2cc(N)ccc2C12C(=O)Nc1ccc(Br)cc12 (stereo not drawn)	43.3
N#CC1=C(N)Oc2cc(N)ccc2C1c1ccccc1Cl (stereo not drawn)	26.6
O=C(Nc1c(Cl)cncc1Cl)c1ccc(OC(F)F)c(OCC2CC2)c1	56.9
CC1(C)CC(c2nc(-c3ccc4ccc(-c5ccccc5)nc4c3)c3c(N)nccn23)C1	37.9

SMILES	AC35 [µM]
CC[C@@]1(O)C(=O)OCc2c1cc1n(c2=O)Cc2cc3c(CN(C)C)c(O)ccc3nc2-1	0.112
COc1ccc(CNc2nc(N3CCC[C@H]3CO)ncc2C(=O)NCc2ncccn2)cc1Cl	45.2
COc1cc(C2C(C#N)=C(N)Oc3cc(N(C)C)ccc32)cc2c1OCO2 (stereo not drawn)	0.186
N#CC1=C(N)Oc2cc3c(cc2C1c1cccc(Br)c1)OCO3 (stereo not drawn)	0.0564
N#CC1=C(N)Oc2cc(O)ccc2C1c1cccc(Br)c1 (stereo not drawn)	2.2
COc1ccc(-c2ccc3c(c2)[C@H]2[C@H](CCN2S(=O)(=O)c2ccc(OC)cc2)[C@@H](CO)N3C)cc1	4.43
Cc1ccc(C2C(C#N)=C(N)Oc3cc(N)ccc32)cc1 (stereo not drawn)	54.6
COc1ccc(C2=Nn3c(nnc3-c3ccccc3)SC2)cc1OC	42.7
CN1c2ccc(-c3ccc(C#N)cc3)cc2[C@H]2[C@H](CCN2S(=O)(=O)c2cccc(F)c2)[C@H]1CO	2.35
COC(=O)c1ccc(C2C(C#N)=C(N)Oc3cc(N)ccc32)cc1 (stereo not drawn)	40.2
CCOC(=O)CCNc1cc(N2CCc3ccccc3CC2)nc(-c2ccccn2)n1	32.8
COc1ccc(S(=O)(=O)N(C(C)=O)c2ccc(OC(C)=O)c3ccccc23)cc1[N+](=O)[O-]	2.81
N#CC1=C(N)Oc2cc(N)ccc2C1c1ccccc1 (stereo not drawn)	16.6
Clc1ccccc1-c1nnc2n1N=C(c1ccc3c(c1)OCO3)CS2	0.75
N#CC1=C(N)Oc2cc(N)ccc2C1c1cccc(Br)c1 (stereo not drawn)	0.223
Cc1cc(Nc2cc(N3CCN(C)CC3)nc(Sc3ccc(NC(=O)C4CC4)cc3)n2)n[nH]1	39.5
COc1ccc(S(=O)(=O)N2CC[C@@H]3[C@@H](CO)Nc4ccc(-c5cccc(C#N)c5)cc4[C@@H]32)cc1	4.71
O=C(c1cc(Cc2n[nH]c(=O)c3ccccc23)ccc1F)N1CCN(C(=O)C2CC2)CC1	238
Cc1cccc(C2C(C#N)=C(N)Oc3cc(N)ccc32)c1 (stereo not drawn)	0.705
